The test has as its system HL-60. The experiment in a line: Cytotoxicity against human HL60 cells after 72 hrs by MTT method. The format is functional, cell-based. As to conditions: HL-60, 72 h. On the technique in general: Tetrazolium dyes change colour on reduction, which living cells bring about.

Broadly, the IC50 is the concentration at which inhibition is half-maximal. The low end stands for higher potency, the high end for lower potency. The compound `C=C(C)[C@@]12OC3(c4ccccc4)O[C@@H]1[C@@H]1[C@H](OC(C)=O)[C@@](C)(O)[C@@H](OC(C)=O)[C@@]4(OC(=O)c5ccccc5)[C@@H](C[C@H](C)[C@@H]4OC(C)=O)[C@@]1(O3)[C@H](C)[C@@H]2OC(C)=O` [TRIGOHOWNIN D] gave an IC50 of 9.3 µM.

Regarding `C=C(C)[C@@]1(O)[C@@H]2OC3(c4ccccc4)O[C@H]1[C@@H](C)[C@@]1(O3)[C@H]2[C@H](OC(C)=O)[C@@](C)(OC(=O)c2ccccc2)[C@@H](O)[C@@]2(OC(C)=O)[C@H]1C[C@H](C)[C@@H]2OC(C)=O` [TRIGOHOWNIN A], the IC50 was 17 µM. This IC50 lies about 1.8-fold higher than the previous one.

These data come from ChEMBL document CHEMBL1781972, “Daphnane-type diterpenoids from Trigonostemon howii” (J Nat Prod, 2011).
